From ChEMBL document CHEMBL1201862, “PubChem BioAssay data set” (2004)
“And” between values parts separate entries of the source, which are not always exact repeats. Equal values may be shown once.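 Test compounds were applied to cells in 96-well plates for 48 hours at 5 doses. At the GI50, growth is halved.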 The source made the active and inactive calls. Cut-off read from the data, not from the text of the source: active = GI50 up to about 1.1 µM and inactive = higher.

How the values were obtained:
Experiment in all cases: inhibition of tumour cell growth, NCI panel, 48 h
KM-20L2 = tested on: KM-20L2
XF498 = tested on: XF498
DMS-114 = tested on: DMS-114
LXFL 529 = tested on: LXFL 529
DMS-273 = tested on: DMS-273
HOP-18 = tested on: HOP-18
SNB-78 = tested on: SNB-78
RXF 631 = tested on: RXF 631
MDA-N = tested on: MDA-N

O=[N+]([O-])c1cccc(C2N3CCCCC3[C@@H]3c4[nH]c5ccccc5c4CCN23)c1 (stereo partly drawn)
GI50 (KM-20L2): 11 µM (inactive) | GI50 (XF498): 14 µM (inactive) | GI50 (DMS-114): 6.9 µM (inactive) | GI50 (LXFL 529): 19 µM (inactive) | GI50 (DMS-273): 11.8 µM (inactive) | GI50 (HOP-18): 54.6 µM (inactive) | GI50 (SNB-78): 9.79 µM (inactive)

COc1cc(/C=C/C(=O)c2cccc3ccccc23)cc(OC)c1OC
GI50 (KM-20L2): 3.94 µM (inactive) | GI50 (XF498): 7.74 µM (inactive) | GI50 (LXFL 529): 2.73 µM (inactive) | GI50 (DMS-273): 3.59 µM (inactive) | GI50 (HOP-18): 12.4 µM (inactive) | GI50 (SNB-78): 3.44 µM (inactive)

O=[N+]([O-])c1ccc(-n2nnc(C3=NCCN3)c2-c2ccc(Cl)cc2)cc1
GI50 (KM-20L2): > 100 µM (inactive) | GI50 (XF498): > 100 µM (inactive) | GI50 (DMS-114): 77.1 µM (inactive) | GI50 (LXFL 529): > 100 µM (inactive) | GI50 (DMS-273): > 100 µM (inactive) | GI50 (HOP-18): > 100 µM (inactive) | GI50 (SNB-78): > 100 µM (inactive)

COC1(OC)C2(Cl)C3=CCCC=C3C1(Cl)C(Cl)=C2Cl
GI50 (KM-20L2): 23.2 µM (inactive) | GI50 (XF498): 19.2 µM (inactive) | GI50 (DMS-114): 18.1 µM (inactive) | GI50 (LXFL 529): 25.6 µM (inactive) | GI50 (DMS-273): 13.3 µM (inactive) | GI50 (RXF 631): 13.2 µM (inactive) | GI50 (SNB-78): 31.8 µM (inactive)

CCCCCCC(=O)CC(=O)C(=O)Nc1ccccc1C
GI50 (KM-20L2): > 100 µM (inactive) | GI50 (XF498): > 100 µM (inactive) | GI50 (DMS-114): > 69.7 µM (inactive) | GI50 (LXFL 529): > 100 µM (inactive) | GI50 (DMS-273): > 100 µM (inactive) | GI50 (RXF 631): > 100 µM (inactive) | GI50 (HOP-18): > 100 µM (inactive) | GI50 (SNB-78): > 100 µM (inactive)

COc1ccc(/C=C/C(=O)c2c(-c3ccccc3)nn(C)c(=O)c2N2CCOCC2)cc1
GI50 (KM-20L2): 60.3 µM (inactive) | GI50 (XF498): 0.0601 µM (active) | GI50 (DMS-114): > 100 µM (inactive) | GI50 (LXFL 529): > 100 µM (inactive) | GI50 (DMS-273): > 100 µM (inactive) | GI50 (RXF 631): > 100 µM (inactive) | GI50 (HOP-18): > 100 µM (inactive)

CC(C)C(NCc1c2ccccc2nc2ccccc12)C(=O)O (stereo not drawn)
GI50 (KM-20L2): 58.2 µM (inactive) | GI50 (XF498): 21.1 µM (inactive) | GI50 (DMS-114): 27.2 µM (inactive) | GI50 (LXFL 529): 39 µM (inactive) | GI50 (DMS-273): 32.6 µM (inactive) | GI50 (RXF 631): 19.9 µM (inactive)

CN(C)/C(=N/C(=S)Nc1ccccc1)SCc1ccccc1
GI50 (XF498): 24.4 µM (inactive) | GI50 (DMS-114): 9.93 µM (inactive) | GI50 (LXFL 529): 2.38 µM (inactive) | GI50 (DMS-273): 51.6 µM (inactive) | GI50 (RXF 631): 88.1 µM (inactive) | GI50 (HOP-18): > 100 µM (inactive) | GI50 (SNB-78): > 100 µM (inactive)

CSC1=Nc2ccccc2N=C(c2ccccc2)C1
GI50 (KM-20L2): 35.4 µM (inactive) | GI50 (XF498): 39.4 µM (inactive) | GI50 (DMS-114): 21.5 µM (inactive) | GI50 (LXFL 529): 70 µM (inactive) | GI50 (DMS-273): 39.6 µM (inactive) | GI50 (RXF 631): 46.7 µM (inactive) | GI50 (HOP-18): > 100 µM (inactive) | GI50 (SNB-78): > 100 µM (inactive)

OCC1C(/C=C/c2ccoc2)ON2CCCC12 (stereo not drawn)
GI50 (KM-20L2): > 100 µM (inactive) | GI50 (XF498): > 100 µM (inactive) | GI50 (LXFL 529): > 100 µM (inactive) | GI50 (DMS-273): > 100 µM (inactive) | GI50 (HOP-18): 0.279 µM (active) | GI50 (SNB-78): > 100 µM (inactive)

c1ccc(-c2nnc(-c3nn(-c4ccccc4)c4nc5ccccc5nc34)o2)cc1
GI50 (KM-20L2): > 100 µM (inactive) | GI50 (XF498): 22.1 µM (inactive) | GI50 (DMS-114): 28.8 µM (inactive) | GI50 (LXFL 529): 12.3 µM (inactive) | GI50 (DMS-273): 92 µM (inactive) | GI50 (HOP-18): 20 µM (inactive) | GI50 (SNB-78): > 100 µM (inactive)

CC1=NN(C(=O)CC(=O)Nc2cccc(Cl)c2)C(=O)C1/N=N/c1ccc(S(N)(=O)=O)cc1 (stereo not drawn)
GI50 (KM-20L2): > 100 µM (inactive) | GI50 (XF498): > 100 µM (inactive) | GI50 (DMS-114): > 100 µM (inactive) | GI50 (LXFL 529): > 100 µM (inactive) | GI50 (DMS-273): > 100 µM (inactive) | GI50 (HOP-18): > 100 µM (inactive) | GI50 (SNB-78): > 100 µM (inactive)

CCOc1ccccc1/N=N/c1c(-c2ccccc2)nn(C(=O)CC(=O)Nc2cccc(C)c2)c1-c1ccccc1
GI50 (KM-20L2): > 100 µM (inactive) | GI50 (XF498): > 100 µM (inactive) | GI50 (DMS-114): 44.8 µM (inactive) | GI50 (LXFL 529): > 100 µM (inactive) | GI50 (DMS-273): > 100 µM (inactive) | GI50 (RXF 631): 26.2 µM (inactive) | GI50 (HOP-18): > 100 µM (inactive) | GI50 (SNB-78): > 100 µM (inactive)

CC(=O)NC1C(OCc2ccccc2)OC(COC(=O)CCCCCNc2ccc([N+](=O)[O-])c3[nH]c4ccc(O)cc4c(=O)c23)C(O)C1OC(C)C(=O)N[C@@H](C)C(=O)N[C@H](CCC(=O)OCc1ccccc1)C(N)=O (stereo partly drawn)
GI50 (KM-20L2): 0.234 µM (active) | GI50 (LXFL 529): 1.5 µM (inactive) | GI50 (DMS-273): 1.49 µM (inactive) | GI50 (RXF 631): 0.759 µM (active) | GI50 (HOP-18): 1.71 µM (inactive) | GI50 (SNB-78): 3.16 µM (inactive)

COc1ccc(C(=O)CC(=O)C(=O)Nc2ccc(C)c(C)c2)cc1
GI50 (KM-20L2): > 77.1 µM (inactive) | GI50 (DMS-114): 22.8 µM (inactive) | GI50 (LXFL 529): > 64.9 µM (inactive) | GI50 (DMS-273): 40 µM (inactive) | GI50 (RXF 631): > 68.2 µM (inactive) | GI50 (HOP-18): > 70.8 µM (inactive) | GI50 (SNB-78): > 100 µM (inactive)

COc1ccc2c(c1)[n+]([O-])c(-c1ccccc1Cl)c(N)[n+]2[O-]
GI50 (KM-20L2): 38.8 µM (inactive) | GI50 (DMS-114): 32.8 µM (inactive) | GI50 (LXFL 529): 55.3 µM (inactive) | GI50 (DMS-273): 55.6 µM (inactive) | GI50 (RXF 631): 37.4 µM (inactive) | GI50 (HOP-18): > 100 µM (inactive) | GI50 (SNB-78): > 100 µM (inactive)

CC(C)=CCSC1CC2C(CC1(C)O)C2(C)C (stereo not drawn)
GI50 (KM-20L2): 15.7 µM (inactive) and 19.1 µM (inactive) | GI50 (XF498): 4.84 µM (inactive) and 4.62 µM (inactive) | GI50 (DMS-114): 15.6 µM (inactive) and 10.1 µM (inactive) | GI50 (LXFL 529): 17.3 µM (inactive) and 14 µM (inactive) | GI50 (DMS-273): 15.8 µM (inactive) and 9.98 µM (inactive) | GI50 (SNB-78): 23.4 µM (inactive) and 12 µM (inactive)

COc1ccc(-c2c(C3=NCCN3)nnn2-c2ccccc2)cc1
GI50 (KM-20L2): > 100 µM (inactive) | GI50 (XF498): > 100 µM (inactive) | GI50 (DMS-114): > 100 µM (inactive) | GI50 (LXFL 529): > 100 µM (inactive) | GI50 (DMS-273): > 100 µM (inactive) | GI50 (HOP-18): > 100 µM (inactive) | GI50 (SNB-78): > 100 µM (inactive)

CC(C)(Oc1ccc(/C=C/C(=O)c2ccccc2)cc1)C(=O)Nc1c(Cl)cccc1Cl
GI50 (KM-20L2): > 10 µM (inactive) | GI50 (XF498): > 10 µM (inactive) | GI50 (DMS-114): 8.47 µM (inactive) | GI50 (LXFL 529): 6.56 µM (inactive) | GI50 (DMS-273): 8.07 µM (inactive) | GI50 (HOP-18): > 10 µM (inactive) | GI50 (SNB-78): > 10 µM (inactive)

NC1=NC(=O)/C(=C2\CCNC(=O)c3[nH]c(Br)cc32)N1 [HYMENIALDISINE]
GI50 (KM-20L2): 70.1 µM (inactive) | GI50 (XF498): > 100 µM (inactive) | GI50 (MDA-N): 1.9 µM (inactive) | GI50 (DMS-114): 13 µM (inactive) | GI50 (DMS-273): > 85.5 µM (inactive) | GI50 (HOP-18): > 45.1 µM (inactive) | GI50 (SNB-78): 86.3 µM (inactive)
